# Literature values as cited in patent publication US7939522B1, “Dosage formulations for acetylcholinesterase inhibitors” (priority 1999, dated 2011).
# How the values were obtained:
# [1] = reported (Thomsen, 1990)
# sleep = details: humans, systemic administration late in the day or at night (Sitaram, 1979, Reimann, 1994)
SMILES,half life [1] [h],effect on sleep (sleep)
COc1ccc2c3c1O[C@H]1C[C@@H](O)C=C[C@@]31CCN(C)C2 [galanthamine],4.5 to 8,–
CNC(=O)Oc1ccc2c(c1)[C@]1(C)CCN(C)[C@@H]1N2C [physostigmine],–,disturb sleep and produce awakenings
